Results from US20220389003A1, “4-SUBSTITUTED INDOLE AND INDAZOLE SULFONAMIDO DERIVATIVES AS PARG INHIBITORS” (IDEAYA BIOSCIENCES, INC., priority 2019, published 2022).

Key:
PARG [1] = biological target: T1, PARG (Homo sapiens, UniProt Q86W56); assay: Inhibition of PARG enzymatic assay (TR-FRET enzymatic IC50 assay); format: biochemical; parameters: purchased Peak Proteins; conditions: hPARG 250 pM, biotinylated-PARylated PARP substrate 30 nM
Procedure: PARG enzyme was incubated with compound or vehicle (DMSO) and the biotinylated-PARylated PARP substrate in a microtiter plate. After adding detection antibody and streptavidin-europium, and then incubating, the plate was read for fluorescence intensity. The low control (DMSO) with low fluorescence intensity represents no inhibition of enzymatic reaction while the high control (no enzyme) with high fluorescence intensity represents full inhibition of enzymatic reaction.
• PARG • hPARG: 250 pM, His-tagged, Peak Proteins, 0.96 mg/mL (8.58 μM) • Substrate: 30 nM • Reaction time: 70 minutes • Substrate: hPARP1, His- and TEV-tagged, Peak Proteins, 14 μM • Detection Antibody: anti-His monoclonal antibody-ULight, Perkin Elmer catalog #TRF0105-M • Streptavidin-Europium: Perkin Elmer catalog #AD0062 • Assay buffer: 50 mM Tris-HCl pH 7.4, 50 mM KCl, 3 mM EDTA, 0.4 mM EGTA, 1 mM DTT, 0.01% Tween 20, 0.01% BSA • Temperature: 23° C. • Total volume: 20 μL
• 0% inhibition control: DMSO • 100% inhibition control: No enzyme
• 1. Transfer 5 μL of 3× final concentration of test compounds or DMSO to the appropriate wells of a microtiter plate. • 2. Centrifuge the plate at 1000 rpm for 1 minute. • 3. Transfer 5 μL of 3× final concentration of enzyme in assay buffer or assay buffer alone to the appropriate wells. • 4. Centrifuge the plate at 1000 rpm for 1 minute. • 5. Incubate the plate at room temperature for 1 hour. • 6. Transfer 5 μL of 3× substrate in assay buffer to all the test wells. • 7. Centrifuge the plate at 1000 rpm for 1 minute. • 8. Incubate the plate at room temperature for 10 minutes. • 9. Transfer 5 μL of 3× mixture of detection antibody and streptavidin-europium in assay buffer to all the test wells. • 10. Centrifuge the plate at 1000 rpm for 1 minute. • 11. Incubate the plate at room temperature for 1 hour. • 12. Read the plate on a plate reader (e.g., Infinite M1000).

PARG [2] = biological target: T1, PARG; assay: Inhibition of PARG cellular assay (PAR foci in HeLa cells after MMS); format: cell-based; parameters: endogenous in cells; host or cells: HeLa; conditions: compound 1 h then MMS 1 h
Procedure: The ability of the compounds disclosed herein to inhibit PARG was determined as described below. Briefly, after treating HeLa cells with the compounds of the disclosure for 1 h, followed by treatment with DNA alkylating agent methylmethanesulfonate (MMS) for an additional 1 h, the cells were fixed in 3.7% formaldehyde. The cells were permeabilized in 0.5% Triton-X100, blocked in 5% goat serum, and incubated with mouse monoclonal antibody against poly (ADP) ribose (PAR) polymer overnight at 4° C. The cells were washed and incubated with an Alexafluor 488-linked secondary antibody together with a nuclear stain (Hoechst 33342) for an hour at room temperature. After washing, images of the cells were captured and analyzed on a high content imaging microscope and software. Two measurement of PAR chain were quantified with the mean intensity over background of the nuclear foci (fluorescent signal at 488 nm range 0.3-2.0 μm foci) quantified as PAR foci (PAR Foci IC50). The cells with a PAR foci signal >1.3 was considered as positive (PAR % positive IC50), and the percentage positive cells are quantified.

T1 sequence (Q86W56 whole entry): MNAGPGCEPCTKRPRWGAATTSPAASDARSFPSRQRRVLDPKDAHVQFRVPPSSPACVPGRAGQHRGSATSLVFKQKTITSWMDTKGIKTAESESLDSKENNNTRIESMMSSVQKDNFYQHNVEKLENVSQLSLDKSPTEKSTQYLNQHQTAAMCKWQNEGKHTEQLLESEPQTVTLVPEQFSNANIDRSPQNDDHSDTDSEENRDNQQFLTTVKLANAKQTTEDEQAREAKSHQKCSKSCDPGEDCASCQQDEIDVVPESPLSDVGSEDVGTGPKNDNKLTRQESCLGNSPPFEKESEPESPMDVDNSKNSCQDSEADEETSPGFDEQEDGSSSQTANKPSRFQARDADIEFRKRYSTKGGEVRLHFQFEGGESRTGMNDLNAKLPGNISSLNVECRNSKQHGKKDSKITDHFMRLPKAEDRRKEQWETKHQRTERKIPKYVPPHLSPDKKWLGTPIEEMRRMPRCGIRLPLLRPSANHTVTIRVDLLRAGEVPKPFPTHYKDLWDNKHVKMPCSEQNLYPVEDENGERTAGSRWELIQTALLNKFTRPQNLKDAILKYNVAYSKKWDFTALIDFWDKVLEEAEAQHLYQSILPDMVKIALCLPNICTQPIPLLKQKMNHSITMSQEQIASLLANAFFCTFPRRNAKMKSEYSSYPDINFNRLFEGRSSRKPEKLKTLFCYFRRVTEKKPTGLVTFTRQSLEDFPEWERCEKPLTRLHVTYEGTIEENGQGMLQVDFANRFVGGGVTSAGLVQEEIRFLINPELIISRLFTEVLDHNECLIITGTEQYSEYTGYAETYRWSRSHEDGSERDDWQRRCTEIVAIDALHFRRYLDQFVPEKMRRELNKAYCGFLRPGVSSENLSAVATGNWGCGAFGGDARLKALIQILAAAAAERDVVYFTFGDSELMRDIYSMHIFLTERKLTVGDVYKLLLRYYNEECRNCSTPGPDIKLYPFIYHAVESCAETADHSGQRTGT

Row | IC50 (PARG [1]) [nM] | IC50 (PARG [2]) [nM] | SMILES
1 | 100 to 300 | 1000 to 10000 | N#CC1(NS(=O)(=O)c2cc(-c3ccnnc3)c3cnn(-c4nnc(C(F)F)s4)c3c2)CC1 [Example 10, 1-[({1-[5-(difluoromethyl)(1,3,4-thiadiazol-2-yl)]-4-pyridazin-4-yl-1H-indazol-6-yl}sulfonyl)amino]cyclopropanecarbonitrile]
2 | 300 to 1000 | 300 to 1000 | N#CC1(NS(=O)(=O)c2cc(-c3cscn3)c3cnn(-c4nnc(C(F)F)s4)c3c2)CC1 [Example 13, 1-[({1-[5-(difluoromethyl)(1,3,4-thiadiazol-2-yl)]-4-(1,3-thiazol-4-yl)-1H-indazol-6-yl}sulfonyl)amino]cyclopropanecarbonitrile]
3 | 300 to 1000 | 1000 to 10000 | N#CC1(NS(=O)(=O)c2cc(-c3c[nH]cn3)c3cnn(-c4nnc(C(F)F)s4)c3c2)CC1 [Example 9, 1-[({1-[5-(difluoromethyl)(1,3,4-thiadiazol-2-yl)]-4-imidazol-4-yl-1H-indazol-6-yl}sulfonyl)amino]cyclopropanecarbonitrile]
4 | 100 to 300 | 1000 to 10000 | N#CC1(NS(=O)(=O)c2cc(-c3ccncc3)c3cnn(-c4nnc(C(F)F)s4)c3c2)CC1 [Example 16, 1-[({1-[5-(difluoromethyl)(1,3,4-thiadiazol-2-yl)]-4-(4-pyridyl)-1H-indazol-6-yl}sulfonyl)amino]cyclopropanecarbonitrile]
5 | 300 to 1000 | 1000 to 10000 | N#CC1(NS(=O)(=O)c2cc(-c3cccnc3)c3cnn(-c4nnc(C(F)F)s4)c3c2)CC1 [Example 17, 1-[({1-[5-(difluoromethyl)(1,3,4-thiadiazol-2-yl)]-4-(3-pyridyl)-1H-indazol-6-yl}sulfonyl)amino]cyclopropanecarbonitrile]
6 | 100 to 300 | 1000 to 10000 | N#CC1(NS(=O)(=O)c2cc(-c3cnccn3)c3cnn(-c4nnc(C(F)F)s4)c3c2)CC1 [Example 18, 1-[({1-[5-(difluoromethyl)(1,3,4-thiadiazol-2-yl)]-4-pyrazin-2-yl-1H-indazol-6-yl}sulfonyl)amino]cyclopropanecarbonitrile]
7 | 1000 to 10000 | 1000 to 10000 | N#CC1(NS(=O)(=O)c2cc(N3CCCC3)c3cnn(-c4nnc(C(F)F)s4)c3c2)CC1 [Example 101, 1-[({1-[5-(difluoromethyl)(1,3,4-thiadiazol-2-yl)]-4-pyrrolidinyl-1H-indazol-6-yl}sulfonyl)amino]cyclopropanecarbonitrile]
8 | 100 to 300 | 1000 to 10000 | N#CC1(NS(=O)(=O)c2cc(-c3cccnn3)c3cnn(-c4nnc(C(F)F)s4)c3c2)CC1 [Example 11, 1-[({1-[5-(difluoromethyl)(1,3,4-thiadiazol-2-yl)]-4-pyridazin-3-yl-1H-indazol-6-yl}sulfonyl)amino]cyclopropanecarbonitrile]
9 | – | 300 to 1000 | COc1cc(-c2cc(S(=O)(=O)NC3(C#N)CC3)cc3c2cnn3-c2nnc(C(F)F)s2)ncn1 [Example 22, 1-[({1-[5-(difluoromethyl)(1,3,4-thiadiazol-2-yl)]-4-(6-methoxypyrimidin-4-yl)-1H-indazol-6-yl}sulfonyl)amino]cyclopropanecarbonitrile]
10 | 300 to 1000 | 300 to 1000 | Cn1cnc(-c2cc(S(=O)(=O)NC3(C#N)CC3)cc3c2cnn3-c2nnc(C(F)F)s2)c1 [Example 12, 1-[({1-[5-(difluoromethyl)(1,3,4-thiadiazol-2-yl)]-4-(1-methylimidazol-4-yl)-1H-indazol-6-yl}sulfonyl)amino]cyclopropanecarbonitrile]

Further lines, the molecule ahead of its results:

Row | SMILES | IC50 (PARG [1]) [nM] | IC50 (PARG [2]) [nM]
11 | CN(C)C(=O)C1CN(c2cc(S(=O)(=O)NC3(C#N)CC3)cc3c2cnn3-c2nnc(C(F)F)s2)C1 [Example 55, [1-(1-[5-(difluoromethyl)(1,3,4-thiadiazol-2-yl)]-6-{[(cyanocyclopropyl)amino]sulfonyl}(1H-indazol-4-yl))azetidin-3-yl]-N,N-dimethylcarboxamide] | 300 to 1000 | –
12 | CN1Cc2cn(-c3cc(S(=O)(=O)NC4(C#N)CC4)cc4c3cnn4-c3nnc(C(F)F)s3)nc2C1 [Example 73, 1-[({1-[5-(difluoromethyl)(1,3,4-thiadiazol-2-yl)]-4-(5-methyl(3-pyrrolino[3,4-c]pyrazol-2-yl))-1H-indazol-6-yl}sulfonyl)amino]cyclopropanecarbonitrile] | 100 to 300 | 1000 to 10000
13 | N#CC1(NS(=O)(=O)c2cc(N3CCN4C(=O)OC[C@@H]4C3)c3cnn(-c4nnc(C(F)F)s4)c3c2)CC1 [Example 62, 1-[({4-((1S)-7-oxo-8-oxa-3,6-diazabicyclo[4.3.0]non-3-yl)-1-[5-(difluoromethyl) (1,3,4-thiadiazol-2-yl)]-1H-indazol-6-yl}sulfonyl)amino]cyclopropanecarbonitrile] | ≤ 100 | –
14 | N#CC1(NS(=O)(=O)c2cc(N3CCC(F)(F)CC3)c3cnn(-c4nnc(C(F)F)s4)c3c2)CC1 [Example 105, 1-[({1-[5-(difluoromethyl)(1,3,4-thiadiazol-2-yl)]-4-(4,4-difluoropiperidyl)-1H-indazol-6-yl}sulfonyl)amino]cyclopropanecarbonitrile] | 1000 to 10000 | 300 to 1000
15 | CN1CCN(c2cc(S(=O)(=O)NC3(C#N)CC3)cc3c2cnn3-c2nnc(C(F)F)s2)CC1 [Example 102, 1-[({1-[5-(difluoromethyl)(1,3,4-thiadiazol-2-yl)]-4-(4-methylpiperazinyl)-1H-indazol-6-yl}sulfonyl)amino]cyclopropanecarbonitrile] | 100 to 300 | 300 to 1000
16 | N#CC1(NS(=O)(=O)c2cc(N3CC4COCC(C3)N4)c3cnn(-c4nnc(C(F)F)s4)c3c2)CC1 [Example 70, 1-[({1-[5-(difluoromethyl)(1,3,4-thiadiazol-2-yl)]-4-(7-oxa-3,9-diazabicyclo-[3.3.1]non-3-yl)-1H-indazol-6-yl}sulfonyl)amino]cyclopropanecarbonitrile] | 100 to 300 | –
17 | N#CC1(NS(=O)(=O)c2cc(N3CCCC4(COC4)C3)c3cnn(-c4nnc(C(F)F)s4)c3c2)CC1 [Example 65, 1-[({1-[5-(difluoromethyl)(1,3,4-thiadiazol-2-yl)]-4-(2-oxa-6-azaspiro[3.5]non-6-yl)-1H-indazol-6-yl}sulfonyl)amino]cyclopropanecarbonitrile] | 300 to 1000 | –
18 | N#CC1(NS(=O)(=O)c2cc(N3CCCOCC3)c3cnn(-c4nnc(C(F)F)s4)c3c2)CC1 [Example 42, 1-[({1-[5-(difluoromethyl)(1,3,4-thiadiazol-2-yl)]-4-(1,4-oxazaperhydroepin-4-yl)-1H-indazol-6-yl}sulfonyl)amino]cyclopropanecarbonitrile] | 1000 to 10000 | –
19 | N#CC1(NS(=O)(=O)c2cc(N3CCC4(CCOC4)CC3)c3cnn(-c4nnc(C(F)F)s4)c3c2)CC1 [Example 29, 1-[({1-[5-(difluoromethyl)(1,3,4-thiadiazol-2-yl)]-4-(2-oxa-8-azaspiro[4.5]dec-8-yl)-1H-indazol-6-yl}sulfonyl)amino]cyclopropanecarbonitrile] | 100 to 300 | 300 to 1000
20 | COc1cc(-c2cc(S(=O)(=O)NC3(C(N)=O)CC3)cc3c2cnn3-c2nnc(C(F)F)s2)ncn1 [Example 19, 1-[({1-[5-(difluoromethyl)(1,3,4-thiadiazol-2-yl)]-4-(6-methoxypyrimidin-4-yl)-1H-indazol-6-yl}sulfonyl)amino]cyclopropanecarboxamide] | 300 to 1000 | 1000 to 10000
21 | COc1nccc(-c2cc(S(=O)(=O)NC3(C(N)=O)CC3)cc3c2cnn3-c2nnc(C(F)F)s2)n1 [Example 20, 1-[({1-[5-(difluoromethyl)(1,3,4-thiadiazol-2-yl)]-4-(2-methoxypyrimidin-4-yl)-1H-indazol-6-yl}sulfonyl)amino]cyclopropanecarboxamide] | 300 to 1000 | 1000 to 10000
22 | CN(C)C(=O)N1CCCN(c2cc(S(=O)(=O)NC3(C#N)CC3)cc3c2cnn3-c2nnc(C(F)F)s2)CC1 [Example 78, [4-(1-[5-(difluoromethyl)(1,3,4-thiadiazol-2-yl)]-6-{[(cyanocyclopropyl)amino]-sulfonyl}(1H-indazol-4-yl))(1,4-diazaperhydroepinyl)]-N,N-dimethylcarboxamide] | 100 to 300 | –
